Like-named read-outs stand apart in the source and are kept apart here. Square brackets hold non-standard residues; d marks the D form. pGlu = O=C1CC[C@@H](C(=O)O)N1
Key:
[1] = tested on: patients in ART treatments; details: cited from earlier work
[2] = tested on: patients who did not conceive; test: Dose finding study: luteal phase serum oestradiol levels; assay type: in vivo, human
Description: (§1) Patients suffering from unexplained infertility, or from infertility resulting from mild to moderate endometrioisis, or an infertility resulting from a mild or moderate alteration of their partner sperm, and whom have not conceived despite regular sexual intercourses during a period of one or two years, usually undergo medical assistance. The most often used treatment is ovarian stimulation coupled to an IUI (Hughes G. H. 1997, The effectiveness of ovulation induction and intra-uterine insemination in the treatment of persistent infertility: a meta-analysis. Hum Reprod. 12: 1865-1872).
(§2) A prospective, randomised, parallel groups dose finding study was conducted in this patient population.
(§3) The number and the size of each follicle was recorded.
(§4) Between 12 and 48 hours after triggering ovulation, the patient's partner provided a sperm sample, after 2 to 5 days of abstinence. Motile sperm cells were separated from seminal fluid, dead sperm cells, leucocytes, and cellular debris using a suitable method such as a “swim-up” or a Percol gradient. On that same day, the motile sperm cell suspension was used to perform an intra-uterine insemination with a catheter inserted into the uterine cavity via the cervix. The procedure may be repeated on the next day.

[3] = tested on: patients suffering from unexplained infertility, mild to moderate endometrioisis or partner sperm alteration; test: Dose finding study: luteal phase duration and pregnancy outcome after ovarian stimulation and IUI; assay type: in vivo; details: for Positive pregnancy test: patients positive/total, day 14 of luteal phase; for Clinical pregnancy: patients/total
Description: as §1, §2, §3, §4

[4] = tested on: patients who did not conceive; test: Dose finding study: luteal phase serum progesterone levels; assay type: in vivo, human
Description: as §1, §2, §3, §4

[5] = tested on: patients (hypothalamic amenorrhea); details: nasal administration every 4 hours after IV GnRH induction of ovulation; in half of the patients; cited from earlier work
[6] = Day 0, buserelin 100 μg/2 days IN
[7] = Day 0, buserelin 100 μg/3 days IN
[8] = Day 1, buserelin 100 μg/2 days IN
[9] = Day 1, buserelin 100 μg/3 days IN
[10] = Day 4, buserelin 100 μg/2 days IN
[11] = Day 4, buserelin 100 μg/3 days IN
[12] = Day 7, buserelin 100 μg/2 days IN
[13] = Day 7, buserelin 100 μg/3 days IN
[14] = Day 9, buserelin 100 μg/2 days IN
[15] = Day 9, buserelin 100 μg/3 days IN
[16] = Day 11, buserelin 100 μg/2 days IN
[17] = Day 11, buserelin 100 μg/3 days IN
[18] = Day 11, buserelin 100 μg/day IN
[19] = Day 14, buserelin 100 μg/2 days IN
[20] = Day 14, buserelin 100 μg/3 days IN
[21] = Day 14, buserelin 100 μg/day IN

Molecule: CC(=O)[C@H]1CC[C@H]2[C@@H]3CCC4=CC(=O)CC[C@]4(C)[C@H]3CC[C@]12C [progesterone]
- relative efficacy of IM progesterone vs vaginal progesterone ([1]; C.I. of 1.02-1.75, in favor of the IM route (p<0.05)): 1.33
- odds to obtain a pregnancy compared to no luteal support ([1]; progesterone IM, CI: 1.36-4.27, p<0.05): 2.38
- odds to obtain a pregnancy compared to no luteal support ([1]; vaginal route, C.I. of 0.95-4.67 (NS)): 2.11

Molecule: CCNC(=O)[C@@H]1CCCN1C(=O)[C@H](CCCNC(=N)N)NC(=O)[C@H](CC(C)C)NC(=O)[C@@H](COC(C)(C)C)NC(=O)[C@H](Cc1ccc(O)cc1)NC(=O)[C@H](CO)NC(=O)[C@H](Cc1c[nH]c2ccccc12)NC(=O)[C@H](Cc1cnc[nH]1)NC(=O)[C@@H]1CCC(=O)N1 [Buserelin, <Glu^1-His^2-Trp^3-Ser^4-Tyr^5-D-Ser(t-But)^6-Leu^7-Arg^8-Pro^9-EA (SEQ ID NO: 2)]
- Luteal phase serum oestradiol level (mean ± SD) [2, 6]: 247 ± 79 pg/mL
- Luteal phase serum oestradiol level (mean ± SD) [2, 7]: 182 ± 76 pg/mL
- Luteal phase serum oestradiol level (mean ± SD) ([2]; Day 0, buserelin 100 μg/day IN): 175 ± 071 pg/mL
- Luteal phase serum oestradiol level (mean ± SD) [2, 8]: 164 ± 75 pg/mL
- Luteal phase serum oestradiol level (mean ± SD) [2, 9]: 325 ± 160 pg/mL
- Luteal phase serum oestradiol level (mean ± SD) [2, 10]: 139 ± 77 pg/mL
- Luteal phase serum oestradiol level (mean ± SD) [2, 11]: 106 ± 61 pg/mL
- Luteal phase serum oestradiol level (mean ± SD) ([2]; Day 4, buserelin 100 μg/day IN): 179 ± 101 pg/mL
- Luteal phase serum oestradiol level (mean ± SD) [2, 12]: 70 ± 19 pg/mL
- Luteal phase serum oestradiol level (mean ± SD) [2, 13]: 144 ± 118 pg/mL
- Luteal phase serum oestradiol level (mean ± SD) ([2]; Day 7, buserelin 100 μg/day IN): 163 ± 30 pg/mL
- Luteal phase serum oestradiol level (mean ± SD) [2, 14]: 65 ± 15 pg/mL
- Luteal phase serum oestradiol level (mean ± SD) [2, 15]: 109 ± 88 pg/mL
- Luteal phase serum oestradiol level (mean ± SD) ([2]; Day 9, buserelin 100 μg/day IN): 232 ± 77 pg/mL
- Luteal phase serum oestradiol level (mean ± SD) [2, 16]: 75 ± 4 pg/mL
- Luteal phase serum oestradiol level (mean ± SD) [2, 17]: 123 ± 61 pg/mL
- Luteal phase serum oestradiol level (mean ± SD) [2, 18]: 200 ± 30 pg/mL
- Luteal phase serum oestradiol level (mean ± SD) [2, 19]: 124 ± 68 pg/mL
- Luteal phase serum oestradiol level (mean ± SD) [2, 20]: 82 ± 31 pg/mL
- Luteal phase serum oestradiol level (mean ± SD) [2, 21]: 154 ± 85 pg/mL
- luteal support, summary of tables 1-3 ([3]; buserelin 100 μg IN once a day for 14 days, compared with the other groups): a longer luteal phase, higher progesterone and oestradiol levels in late luteal phase and a trend toward a higher clinical pregnancy rate
- Positive pregnancy test ([3]; buserelin 100 μg/2 days IN): 2/6
- Clinical pregnancy ([3]; buserelin 100 μg/2 days IN): 1/6
- Positive pregnancy test ([3]; buserelin 100 μg/3 days IN): 1/5
- Clinical pregnancy ([3]; buserelin 100 μg/3 days IN): 0/5
- Positive pregnancy test ([3]; buserelin 100 μg/day IN): 2/6
- Clinical pregnancy ([3]; buserelin 100 μg/day IN): 2/6
- Luteal phase duration (mean ± SD) ([3]; buserelin 200 μg IN trigger, then 100 μg/day IN for 14 days, n=6): 15.3 ± 0.5 days
- adverse local reactions of intra-nasal administration ([3]; self-administered intra-nasal buserelin 100 μg): did not carry the risk of adverse local reactions such as pain and abces
- Luteal phase serum progesterone level (mean ± SD) [4, 6]: 0.9 ± 0.7 ng/mL
- Luteal phase serum progesterone level (mean ± SD) [4, 7]: 0.7 ± 0.3 ng/mL
- Luteal phase serum progesterone level (mean ± SD) ([4]; Day 0, buserelin 100 μg/day IN): 1.1 ± 0.4 ng/mL
- Luteal phase serum progesterone level (mean ± SD) [4, 8]: 1.3 ± 0.8 ng/mL
- Luteal phase serum progesterone level (mean ± SD) [4, 9]: 0.9 ± 0.2 ng/mL
- Luteal phase serum progesterone level (mean ± SD) ([4]; Day 1, buserelin 100 μg/day IN): 1.2 ± 0.3 ng/mL
- Luteal phase serum progesterone level (mean ± SD) [4, 10]: 7.6 ± 3.2 ng/mL
- Luteal phase serum progesterone level (mean ± SD) [4, 11]: 5.1 ± 2.0 ng/mL
- Luteal phase serum progesterone level (mean ± SD) ([4]; Day 4, buserelin 100 μg/day IN): 6.2 ± 2.3 ng/mL
- Luteal phase serum progesterone level (mean ± SD) [4, 12]: 11.7 ± 4.6 ng/mL
- Luteal phase serum progesterone level (mean ± SD) [4, 13]: 11.5 ± 3.6 ng/mL
- Luteal phase serum progesterone level (mean ± SD) ([4]; Day 7, buserelin 100 μg/day IN): 13.9 ± 2.9 ng/mL
- Luteal phase serum progesterone level (mean ± SD) [4, 14]: 8.2 ± 6.4 ng/mL
- Luteal phase serum progesterone level (mean ± SD) [4, 15]: 10.8 ± 6.6 ng/mL
- Luteal phase serum progesterone level (mean ± SD) ([4]; Day 9, buserelin 100 μg/day IN): 16.2 ± 7.5 ng/mL
- Luteal phase serum progesterone level (mean ± SD) [4, 16]: 8.3 ± 6.5 ng/mL
- Luteal phase serum progesterone level (mean ± SD) [4, 17]: 10.0 ± 3.7 ng/mL
- Luteal phase serum progesterone level (mean ± SD) [4, 18]: 14.1 ± 3.3 ng/mL
- Luteal phase serum progesterone level (mean ± SD) [4, 19]: 5.8 ± 4.7 ng/mL
- Luteal phase serum progesterone level (mean ± SD) [4, 20]: 3.3 ± 2.4 ng/mL
- Luteal phase serum progesterone level (mean ± SD) [4, 21]: 8.4 ± 4.3 ng/mL

Molecule: <Glu^1-His^2-Trp^3-Ser^4-Tyr^5-His^6-Leu^7-Arg^8-Pro^9-Gly^10-NH2 (SEQ ID NO: 1) ([pGlu]HWSYHLRPG-NH2; SMILES CC(C)C[C@H](NC(=O)[C@H](Cc1c[nH]cn1)NC(=O)[C@H](Cc1ccc(O)cc1)NC(=O)[C@H](CO)NC(=O)[C@H](Cc1c[nH]c2ccccc12)NC(=O)[C@H](Cc1c[nH]cn1)NC(=O)[C@@H]1CCC(=O)N1)C(=O)N[C@@H](CCCNC(=N)N)C(=O)N1CCC[C@H]1C(=O)NCC(N)=O; listed as Homo sapiens) [native GnRH, synthetic, native GnRH decapeptide]
- support of the luteal phase [5]: completely ineffective

From patent US7671027B2, “Use of GnRH agonists to support the luteal phase during infertility treatment” (PregLem S.A., priority 2002, dated 2010)
